Converted amounts (≈) assume the structure as drawn. Where two headings read alike, the source gives them in different places.
How the values were obtained:
CYP2C19 = molecular target: T1, CYP2C19 (Homo sapiens, UniProt P33261); experiment: CYP reversible inhibition in HLM, CYP2C19; assay type: in vitro ADME; settings: probe S-mephenytoin
T1 construct: tissue BD Gentest; host or cells: human liver microsomes
Method: Test compounds were diluted in methanol and then added to mixture containing 50 mM potassium phosphate buffer, pH 7.4, human liver microsomes (BD Gentest) and probe substrate. After prewarming for 5 min at 37 °C, the reaction was started by adding cofactor mix (7.65 mg/mL glucose-6-phosphate, 1.7 mg/mL NADP, 6 U/mL of glucose-6-phosphate dehydrogenase), resulting in seven final concentrations of test compounds in the range 0.14–100 μM (2% methanol). Isoform specific conditions regarding probe substrate and microsomal protein concentrations are available in Table 2. Final concentrations of cofactor mix components were as follows: 1.56 mg/mL glucose-6-phosphate, 0.34 mg/mL NADP, and 1.2 U/mL glucose-6-phosphate dehydrogenase. After incubation at 37 °C, the reaction was terminated with acetonitrile:methanol (2:1) solution with internal standard. Samples were centrifuged, and the supernatant fractions were analyzed by LC-MS/MS. The instrument responses (test compounds and internal standard peak areas) were referenced to those for solvent controls (assumed as 100%) in order to determine the percentage reduction in probe metabolism. Percent of control activity vs concentration plots were generated and fitted using GraphPad Prism software to generate IC50.

Thermodynamic solubility = assay type: physicochemical
Method: Dry matter of compound was dissolved at 1 mg/mL in buffers at different pH (Fasted simulated gastric fluid and pH 7.4) in glass vials. After 24 h of stirring at room temperature, a sample is taken, centrifuged for 10 min at 10,000 rpm, and filtered. The samples were diluted in duplicate in DMSO (F100 and F10). Then, a final dilution (F100) in 80/20 water/acetonitrile containing the internal standard was used for the LCMS-MS analysis.
A standard curve was made ranging from a 200,000–75 ng/mL stock in DMSO, freshly prepared from dry matter. The standard curve and quality controls were diluted in an F100 in 80/20 water/acetonitrile (with internal standard) and analyzed on LC/MS-MS. The peak areas of the standard curve are plotted in a graph, and a linear or polynomial of the second order equation is used to calculate the unknown concentrations of the test compound.

[1] = Liver microsomal stability, dog; assay type: in vitro ADME; settings: matrix not given, read-out: Clintr,unbound dog
Method: The microsomal stability assay was performed by incubation of test compound at 1 μM, 0.2% DMSO in phosphate buffer with microsomes (0.5 mg/mL) from mouse, rat, dog, or human (Xeno-Tech, Kansas City, KS, USA), and cofactors with final concentrations of 0.6 U/mL glucose-6- phosphate dehydrogenase, 3.3 mM MgCl2, 3.3 mM glucose-6-phosphate, and 1.3 mM nicotinamide adenine dinucleotide phosphate (NADP)+. Before addition of the microsomes (time zero) and after 30 min of incubation at 37 °C with shaking, the reaction was stopped, and proteins were precipitated with an excess of acetonitrile containing an internal standard. The samples were mixed, centrifuged, and filtered, and the supernatant was analyzed by liquid chromatography–mass spectrometry/mass spectrometry (LC–MS/MS). […] In vitro unbound intrinsic clearance (CLint,u) was calculated from the half-life using the following equations: [drawing 1] […]
Equilibrium dialysis is a technique used to measure microsomal binding. […] Each compound was analyzed in duplicate for 4 h at 37 °C. At the end of incubation, both chambers were sampled and analyzed by LC-MS/MS. The unbound microsomal fraction (fu, mic) was calculated as the concentration in buffer divided by the total concentration in the microsomal side. […]

T1 sequence (P33261 whole entry): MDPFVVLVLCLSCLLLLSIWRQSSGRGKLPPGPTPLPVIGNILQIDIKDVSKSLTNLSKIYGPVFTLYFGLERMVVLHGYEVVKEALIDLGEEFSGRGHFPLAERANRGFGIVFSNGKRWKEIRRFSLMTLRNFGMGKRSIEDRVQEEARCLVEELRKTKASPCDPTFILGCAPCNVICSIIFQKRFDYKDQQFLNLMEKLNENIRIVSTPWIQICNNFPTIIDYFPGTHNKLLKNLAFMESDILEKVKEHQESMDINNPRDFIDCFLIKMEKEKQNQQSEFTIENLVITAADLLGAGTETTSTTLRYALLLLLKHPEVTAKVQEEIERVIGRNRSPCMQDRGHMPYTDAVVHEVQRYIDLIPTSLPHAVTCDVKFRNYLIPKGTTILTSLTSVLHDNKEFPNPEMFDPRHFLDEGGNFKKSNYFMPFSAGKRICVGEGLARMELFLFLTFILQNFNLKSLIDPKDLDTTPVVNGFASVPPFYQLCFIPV

IC50 (CYP2C19): > 33 µM
solubility thermodynamic at 24 h (Thermodynamic solubility; buffer pH 7.4, pH 7.4, read-out: thermodynamic solubility pH 7.4): 9.9 µg/mL (≈ 16.1 µM)
solubility thermodynamic at 24 h (Thermodynamic solubility; fasted simulated gastric fluid, read-out: thermodynamic solubility FASSGF): 10.9 µg/mL (≈ 17.8 µM)
CLint scaled at 1 μM [1]: < 32 mL/min/kg
Structure (SMILES): COC1CCN(C2CCN(c3cc(C(=O)NS(=O)(=O)N(C)C)nc4c3c(C3CCC3)nn4-c3ccc(F)cc3)CC2)CC1 [Compound 52, 3-Cyclobutyl-N-(N,N-dimethylsulfamoyl)-1-(4-fluorophenyl)-4-(4-methoxy-[1,4′-bipiperidin]-1′-yl)-1H-pyrazolo[3,4-b]pyridine-6-carboxamide]
